Source: patent publication US7528107B2, “Methods of treating inflammation in mammalian tissues comprising administering human alpha-defensins” (Auburn University, priority 2005, dated 2009)
Entries after “also recorded” stand apart in the source; their conditions may differ.

Experiments:
Assay type in all cases: cell-based
[1] = test system: IL-1β release from human monocytes; assay: ATP mediated proIL-1β / mature IL-1β release from LPS-activated human monocytes (FIG. 2, FIG. 3)
[2] = test system: IL-1β release from human monocytes; assay: as above; conditions: for processing of proIL-1β after it is released extracellularly: LPS-activated human monocytes treated with ATP, then α-defensins; for ATP-mediated IL-1β release from human monocytes: summary statement
Experimental: (§1) Lipopolysaccharide (LPS) activated, ^35S-methionine-labeled human monocytes treated with human α-defensins HNP-1 or HD-5 in the presence and absence of ATP were examined. Media and cell-associated fractions were harvested separately and IL-1β was recovered from each by immunoprecipitation. The resulting immuno-precipitates were analyzed by SDS-PAGE and autoradiography. Referring now to FIG. 2, in the absence of ATP, LPS activated monocytes released about 10% of ^35S-methionine-labeled proIL-1β (31 kDa) into the media, but no mature (17 kDa) IL-1β was detected. As expected, addition of ATP to the LPS-activated monocyte culture led to the release of 90% of newly synthesized proIL-1β from the cell and more than 90% of the proIL-1β was processed to mature IL-1β and detected in the media.
(§2) Peripheral blood monocytes where isolated from healthy volunteers and patients with inflammatory bowel disease and suspended in monocyte maintenance medium (RPMI 1640 medium, 5% FBS 25 mM HEPES and 1% Pen/Strep). Blood samples from healthy volunteers were collected at the Auburn University Medical Clinic under an approved protocol. Blood samples from inflammatory bowel disease patients were provided by Dr. W. Park McGehee of Internal Medicine Associates of Opelika, Ala., U.S.A.
(§3) Monocytes were first primed with lipopolysaccharides (LPS). Monocytes were allowed to adhere for two hours, after which medium supernatants were discarded. Attached cells were rinsed twice with maintenance medium and incubated in 1 ml of maintenance medium overnight at 37° C. in a 5% CO2 environment. The following morning LPS was added to some walls to achieve a final concentration of 10 ng/ml and the cultures were activated for two hours at 37° C. The media was then removed and 1 ml of fresh medium (RPMI 1640 containing 1% FVS 25 mM HEPES and 5 mM NaHCO3) was added to each well. These LPS-activated monocytes where then treated with ATP and subsequently, monocytes were selectively treated with α-defensins for interleukin-1β post transitional processing and release studies.
Human α-defensin HNP-1 was obtained from Peptide International of Louisville, Ky., U.S.A. Recombinant human α-defensin HD-5 was provided by Dr. Edith Porter of California State University, Los Angeles, U.S.A. The quality of the synthetic peptides were verified by their anti-bacterial activity. Synthetic human α-defensin HNP-1 was further purified by HPLC and compared to the natural HNP-1 by acid-urea PAGE. LPS-activated human monocytes were treated with 0, 1, 10 and 100 micrograms at 37° C. for three hours. It was also treated with 2 mm ATP for IL-1β maturation. Supernatants were then collected after a 5 minute centrifugation in microphage tubes. The concentration of mature IL-1β and the supernatants was quantified by ELISA(R&D Systems). Because the ELISA is reported by the manufacturer to recognize both pro and mature IL-1β species, presence of proIL-1β and mature IL-1β in the supernatant and cell lysates was also determined by western blot analysis. Briefly, proteins were precipitated from the supernatants by addition of trichloroacetic acid (TCA: 7.5% final concentration) and cholic acid (0.1% final concentration) to each sample. The percipate proteins were washed twice with 100% acetone to extract residual TCA and dissolved in 0.1 ml of SDS-PAGE sampled buffer. The cells where then washed once with PBS and lysed into 0.2 ml of lysis washed once with PBS and lysed into 0.2 ml of lysis buffer (25 mM HEPES 300 mM NaCl 1.5 mM MgCl2, 0.2 mM EDTA, 1% triton X-100, 2 mg/ml leupeptin and 10 mg/ml PMF). Cell lysates and TSA precipitated proteins from the supernatants where then subjected to 12% SDS-PAGE gels and then transferred to PVDV membranes for western blot analysis. IL-1β was probed with goat anti-IL-1β antibody and detected with the rabbit anti-goat IgG-horesradish peroxidase conjugate. […]

[3] = test system: IL-1β release from human monocytes
[4] = test system: IL-1β release from human monocytes; assay: proIL-1β / mature IL-1β release from LPS-activated human monocytes (FIG. 2); conditions: for mature IL-1β in LPS activated cells / proIL-1β in LPS activated cells: overall statement, no concentration given; for LPS-mediated IL-1β release from human monocytes: summary statement
Experimental: as §1, §2, §3
Human α-defensin HNP-1 was obtained from Peptide International of Louisville, Ky., U.S.A. Recombinant human α-defensin HD-5 was provided by Dr. Edith Porter of California State University, Los Angeles, U.S.A. The quality of the synthetic peptides were verified by their anti-bacterial activity. Synthetic human α-defensin HNP-1 was further purified by HPLC and compared to the natural HNP-1 by acid-urea PAGE. LPS-activated human monocytes were treated with 0, 1, 10 and 100 micrograms at 37° C. for three hours. It was also treated with 2 mm ATP for IL-1β maturation. Supernatants were then collected after a 5 minute centrifugation in microphage tubes. The concentration of mature IL-1β and the supernatants was quantified by ELISA(R&D Systems). Because the ELISA is reported by the manufacturer to recognize both pro and mature IL-1β species, presence of proIL-1β and mature IL-1β in the supernatant and cell lysates was also determined by western blot analysis. Briefly, proteins were precipitated from the supernatants by addition of trichloroacetic acid (TCA: 7.5% final concentration) and cholic acid (0.1% final concentration) to each sample. The percipate proteins were washed twice with 100% acetone to extract residual TCA and dissolved in 0.1 ml of SDS-PAGE sampled buffer. The cells where then washed once with PBS and lysed into 0.2 ml of lysis washed once with PBS and lysed into 0.2 ml of lysis buffer (25 mM HEPES 300 mM NaCl 1.5 mM MgCl2, 0.2 mM EDTA, 1% triton X-100, 2 mg/ml leupeptin and 10 mg/ml PMF). Cell lysates and TSA precipitated proteins from the supernatants where then subjected to 12% SDS-PAGE gels and then transferred to PVDV membranes for western blot analysis. IL-1β was probed with goat anti-IL-1β antibody and detected with the rabbit anti-goat IgG-horesradish peroxidase conjugate.

[5] = FIG. 2 column 3, 20 ng/ml LPS + ATP + YVAD-CMK 100 μM
[6] = FIG. 3 columns 2-4, 20-100 μg/ml of HNP-1, 1 mM ATP, 3 hours
[7] = overall statement, no concentration given
[8] = physiological concentrations of 5 ug to 100 ug/ml
[9] = FIG. 2 column 7, 10 ng/ml LPS 2 hours
[10] = FIG. 2 columns 8 and 9, increase of 20-50 mg HNP-1
[11] = addition of ATP to the LPS-activated monocyte culture, 35S-methionine label
[12] = FIG. 3 columns 5 and 6, 20 and 100 μg/ml of HD-1, 1 mM ATP, 3 hours

Compound | processing of proIL-1β after it is released extracellularly [2] | ATP mediated proIL-1β release [2, 7] | ATP mediated proIL-1β release [2, 8] | ATP-mediated IL-1β release from human monocytes [2] | Staphylococcus aureus alpha-toxin-mediated IL-1β release from human monocytes [3] | mature IL-1β in LPS activated cells [4] | proIL-1β in LPS activated cells [4] | LPS-mediated IL-1β release from human monocytes [4] | other results
CC(=O)N[C@@H](Cc1ccc(O)cc1)C(=O)N[C@H](C(=O)N[C@@H](C)C(=O)N[C@@H](CC(=O)O)C(=O)CCl)C(C)C [YVAD-CMK, reference compound] |  |  |  |  |  |  |  |  | mature IL-1β produced (western blot) [1, 5]: no mature IL-1β proteins; proIL-1β produced (western blot) [1, 5]: substantial amount of proIL-1β
human neutrophil defensin 1 [HNP-1] | does not appear to affect | blocked in a dose dependant manner; also recorded: block ATP mediated proIL-1β release in a dose dependant manner | blocked ATP mediated proIL-1β release in a dose dependant manner | blocks | blocks | substantially completely block | inhibit; also recorded: substantially completely block | blocks | mature IL-1β from ATP activated cells [1, 6]: inhibited in a dose dependant manner; proIL-1β release from ATP activated cells [1, 6]: no proIL-1β is released; proIL-1β production ([4]; 20 ug/ml of HNP-1, FIG. 2): sufficient to block; mature IL-1β (western blot) [4, 9]: no mature IL-1β; proIL-1β (western blot) [4, 9]: some proIL-1β; mature IL-1β (western blot) [4, 10]: no mature IL-1β proteins were produced; proIL-1β (western blot) [4, 10]: no proIL-1β
Nc1ncnc2c1ncn2[C@@H]1O[C@H](COP(=O)(O)OP(=O)(O)OP(=O)(O)O)[C@@H](O)[C@H]1O [ATP, Adenosine triphosphate, reference compound] |  |  |  |  |  |  |  |  | proIL-1β processed to mature IL-1β and detected in the media [2, 11]: more than 90%; release of newly synthesized proIL-1β from the cell [2, 11]: 90%
human α-defensin 5 (ATCYCRTGRCATRESLSGVCEISGRLYRLCCR; ALPHA DEFENSIN HD-5; listed as Homo sapiens) [Recombinant human α-defensin produced by Paneth cells] | does not appear to affect | blocked in a dose dependant manner; also recorded: block ATP mediated proIL-1β release in a dose dependant manner | blocked ATP mediated proIL-1β release in a dose dependant manner | blocks | blocks | substantially completely block | inhibit; also recorded: substantially completely block | blocks | mature IL-1β from ATP activated human monocytes [1, 12]: inhibited in a dose dependant manner; proIL-1β release from ATP activated human monocytes [1, 12]: no proIL-1β is released; release of proIL-1β from the LPS-activated monocyte culture ([4]; 10 ug/ml of HD-5, FIG. 2): completely blocked; proIL-1β expressed (western blot) ([4]; FIG. 2 columns 4, 5, 6, increasing amount of HD-5, 4 million cell equivalents activated with LPS): no proIL-1β
